Results as given in the NIST ThermoML archive (doi:10.1016/j.jct.2007.11.010).

Assay: xn = mol fraction of the nth substance listed
Conditions: 101 kPa, Liquid

OCCN1CCOCC1 [4-morpholineethanol] + CC(C)O
mass density [kg/m3]
Conditions	293.15 K	298.15 K	303.15 K	313.15 K	323.15 K
x1 = 0.0543	810.11	806.22	801.63	792.98	784.44
x1 = 0.1127	835.5	831.48	826.84	818.19	809.79
x1 = 0.1873	865.79	861.61	856.92	848.29	840.07
x1 = 0.2468	888.39	884.1	879.38	870.77	862.71
x1 = 0.2874	903.13	898.77	894.03	885.45	877.5
x1 = 0.3248	916.03	911.6	906.84	898.29	890.46
x1 = 0.3873	936.59	932.06	927.29	918.79	911.14
x1 = 0.4267	948.75	944.16	939.38	930.92	923.4
x1 = 0.4882	967	962.32	957.53	949.14	941.81
x1 = 0.5237	976.91	972.17	967.38	959.03	951.82
x1 = 0.5894	994.19	989.37	984.57	976.32	969.32
x1 = 0.6422	1007.31	1002.43	997.63	989.46	982.63
x1 = 0.6899	1018.36	1013.43	1008.64	1000.53	993.87
x1 = 0.7439	1030.26	1025.27	1020.49	1012.47	1005.99
x1 = 0.7855	1038.88	1033.86	1029.09	1021.13	1014.79
x1 = 0.8238	1046.42	1041.36	1036.59	1028.7	1022.49
x1 = 0.8841	1057.54	1052.43	1047.69	1039.9	1033.9
x1 = 0.9247	1064.51	1059.37	1054.64	1046.93	1041.06
x1 = 0.9544	1069.21	1064.05	1059.33	1051.68	1045.92
x1 = 0.9844	1074.11	1068.93	1064.23	1056.62	1050.96

OCCN1CCOCC1 [4-morpholineethanol] + CCC(C)O
mass density [kg/m3]
Conditions	293.15 K	298.15 K	303.15 K	313.15 K	323.15 K
x1 = 0.0542	824.77	821.68	817.07	809.49	804.37
x1 = 0.1098	843.95	840.73	836.08	828.46	823.27
x1 = 0.1855	869.23	865.83	861.15	853.47	848.18
x1 = 0.2431	887.71	884.17	879.46	871.75	866.4
x1 = 0.2876	901.62	897.97	893.25	885.52	880.12
x1 = 0.3266	913.58	909.84	905.11	897.36	891.91
x1 = 0.3854	930.89	927.02	922.28	914.51	909.01
x1 = 0.4277	943.01	939.04	934.29	926.51	920.97
x1 = 0.4822	958.03	953.95	949.18	941.4	935.81
x1 = 0.5189	967.85	963.68	958.92	951.14	945.51
x1 = 0.5672	980.37	976.09	971.33	963.55	957.89
x1 = 0.6044	989.72	985.36	980.59	972.82	967.14
x1 = 0.6438	999.36	994.93	990.17	982.4	976.69
x1 = 0.6798	1007.93	1003.44	998.68	990.92	985.19
x1 = 0.7355	1020.77	1016.16	1011.41	1003.67	997.91
x1 = 0.7942	1033.69	1028.98	1024.24	1016.52	1010.73
x1 = 0.8427	1044.13	1039.33	1034.6	1026.9	1021.09
x1 = 0.8785	1051.72	1046.85	1042.13	1034.45	1028.62
x1 = 0.9235	1061.1	1056.15	1051.43	1043.77	1037.92
x1 = 0.9844	1073.45	1068.39	1063.69	1056.06	1050.18

OCCN1CCOCC1 [4-morpholineethanol] + CCCCO
mass density [kg/m3]
Conditions	293.15 K	298.15 K	303.15 K	313.15 K	323.15 K
x1 = 0.0652	832.8	829	825.1	817.44	809.9
x1 = 0.1125	849.1	845.21	841.24	833.54	826.03
x1 = 0.1865	873.74	869.7	865.64	857.88	850.45
x1 = 0.2436	891.83	887.69	883.56	875.77	868.41
x1 = 0.2865	905.09	900.87	896.69	888.88	881.58
x1 = 0.3275	917.49	913.2	908.97	901.14	893.89
x1 = 0.3852	934.26	929.86	925.57	917.73	910.57
x1 = 0.4259	945.77	941.31	936.97	929.12	922.02
x1 = 0.4784	960.02	955.47	951.09	943.23	936.22
x1 = 0.5248	972.29	967.67	963.24	955.38	948.45
x1 = 0.5649	982.5	977.82	973.35	965.5	958.65
x1 = 0.6126	994.28	989.52	985.02	977.16	970.4
x1 = 0.6539	1004.15	999.34	994.8	986.96	980.27
x1 = 0.6898	1012.51	1007.64	1003.08	995.25	988.63
x1 = 0.7353	1022.74	1017.81	1013.21	1005.4	998.88
x1 = 0.7962	1035.87	1030.87	1026.23	1018.44	1012.05
x1 = 0.8367	1044.36	1039.31	1034.64	1026.87	1020.56
x1 = 0.8823	1053.64	1048.53	1043.84	1036.07	1029.88
x1 = 0.9248	1062.23	1057.07	1052.35	1044.62	1038.5
x1 = 0.9844	1073.74	1068.51	1063.75	1056.05	1050.07

OCCN1CCOCC1 [4-morpholineethanol] + CCCO
mass density [kg/m3]
Conditions	293.15 K	298.15 K	303.15 K	313.15 K	323.15 K
x1 = 0.0441	830.17	823.23	815.35	807.23	799.06
x1 = 0.1025	854.6	847.85	839.76	831.61	823.54
x1 = 0.1771	883.51	877.01	868.66	860.49	852.56
x1 = 0.2366	905.01	898.71	890.18	882	874.19
x1 = 0.2772	919.15	912.99	904.34	896.16	888.43
x1 = 0.3146	931.56	925.53	916.77	908.59	900.94
x1 = 0.3771	951.28	945.46	936.54	928.37	920.85
x1 = 0.4165	962.97	957.29	948.27	940.11	932.69
x1 = 0.478	980.28	974.81	965.64	957.51	950.23
x1 = 0.5135	989.72	984.38	975.14	967.02	959.82
x1 = 0.5792	1006.06	1000.96	991.58	983.5	976.47
x1 = 0.632	1018.06	1013.14	1003.67	995.64	988.74
x1 = 0.6797	1028.12	1023.38	1013.83	1005.84	999.07
x1 = 0.7337	1038.68	1034.12	1024.5	1016.57	1009.94
x1 = 0.7753	1046.19	1041.78	1032.12	1024.22	1017.71
x1 = 0.8136	1052.76	1048.48	1038.78	1030.93	1024.51
x1 = 0.8739	1062.19	1058.11	1048.36	1040.58	1034.34
x1 = 0.9145	1067.81	1063.88	1054.1	1046.38	1040.25
x1 = 0.9442	1071.98	1068.14	1058.34	1050.66	1044.61
x1 = 0.9742	1076.35	1072.61	1062.79	1055.14	1049.16
